Reference: patent publication US9895390B2, “Methods and assays for combination treatment of cancer” (CHILDREN'S MEDICAL CENTER CORPORATION, priority 2012, dated 2018)

How the values were obtained:
Format in all cases: cell-based, human
[1] = system: H460; test: Etoposide dose response curves with or without DZNep, stably transduced lines; details: H460 control cells
Procedure: (§1) Cell lines were dissociated, counted and plated at 5000 cells per well in flat bottom opaque tissue culture treated 96 well plates (CytoOne). Edge wells were filled with PBS. The following day, 2× drug diluted in media was added to each well such that the well then contained 100 ul media with 1× drug concentration. After 4 days, Cell Titer Glo™ (Promega) was added and luminescence was read on a BioTec plate reader to determine relative cell number in each well. Data were averaged for triplicate or quadruplicate technical replicates, normalized to the untreated wells and input into GraphPad Prism software to extrapolate IC50.
as §1, with “concentration at the following doses: etoposide; 0, 0.1, 1, 3, 5, 7, 10, 50, 100, 500 μM, cisplatin; 0, 0.1, 1, 5, 10, 30, 70, 100, 500 μM, or doxorubicin; 0, 0.01, 0.1, 0.5, 1, 3, 5, 7, 10, 50 μM.” for “concentration.”, “CELLTITER-GLO™” for “Cell Titer Glo™”, “replicates and” for “replicates,”, “wells. […]” for “wells and input into GraphPad Prism software to extrapolate IC50.”

[2] = system: HCC15; test: as above; details: HCC15 control cells
Procedure: as §1
as §1, with “concentration at the following doses: etoposide; 0, 0.1, 1, 3, 5, 7, 10, 50, 100, 500 μM, cisplatin; 0, 0.1, 1, 5, 10, 30, 70, 100, 500 μM, or doxorubicin; 0, 0.01, 0.1, 0.5, 1, 3, 5, 7, 10, 50 μM.” for “concentration.”, “CELLTITER-GLO™” for “Cell Titer Glo™”, “replicates and” for “replicates,”, “wells. […]” for “wells and input into GraphPad Prism software to extrapolate IC50.”

[3] = system: p57, p21, p27, Brg1 and EGFR expression; test: Quantitative RT-PCR in treated cell lines; details: Sw1573, Calu6, H23, H460 and PC9; 1 μM DZNep, 4 days
Procedure: RNA from treated cell lines was extracted from using Trizol. Equal amounts of RNA were incubated with DNAse I before cDNA was made using the SuperScript III™ kit (Invitrogen). Relative gene expression was assayed with Sybr green on the StepOnePlus™ Real-Time PCR System (Applied Biosystems). Relative expression was calculated by Gene of Interest (Ctreference-Ctexprimental)-CYPA(Ctreference-Ctexperimental) and graphed on the log 2 scale. For all experiments, the reference sample was a matched untreated or control transduced cell line. Primer sequences:
RNA from treated cell lines was extracted using Absolutely RNA™ kits (Agilent) and cDNA was made using the SuperScript III™ kit (Invitrogen). Relative gene expression was assayed with Sybr green on the StepOnePlus™ Real-Time PCR System (Applied Biosystems). Relative expression was calculated by Gene of Interest(Ctreference-Ctexperimental)-CYPA(Ctreference-Cteexperimental) and graphed on the log 2 scale. For all experiments, the reference sample was a matched untreated or control transduced cell line.

[4] = system: EZH2 and H3K27me3; test: Western Blot for EZH2 and H3K27me3 on whole cell extracts; details: 1 μM DZNep, 4 days
Procedure: For Western blotting, 25 μg of protein extract per sample was denatured with heat and reducing agents, separated on a 4-12% acrylimide gel and transferred to nitrocellulose. Antibodies used for Western blotting were: EZH2 (Cell Signalling), β-actin (AbCAM) and H3K27me3 (Upstate).
Whole cell extracts were made in RIPA buffer (0.5% Deoxycholate, 1% IGEPAL-CA630, 0.1% sodium dodecyl sulfate, 150 mM NaCL, 50 mM Tris-8.1), lysates were cleared by centrifugation, and protein concentrations were quantified with the Pierce BCA Protein Assay Kit (Thermo). For Western blotting, 25 μg of protein extract per sample was denatured with heat and reducing agents, separated on a 4-12% acrylimide gel (BioRad) and transferred to nitrocellulose (GE Healthcare). Antibodies used for Western blotting were: EZH2 (clone D2C9; Cell Signaling; 1:200), Histone H3 (polyclonal; AbCAM ab1791; 1:2000) and H3K27me3 (polyclonal; Millipore 07-449; 1:1000) all incubated overnight at 4° C. Secondary antibody, anti-rabbit-HRP (Santa Cruz sc-2313; 1:5,000), was incubated for 1 hour at room temperature. After washing, chemi-luminescence was visualized with Western Lightning Plus-ECL (PerkinElmer) and exposure onto KODAK BioMax XAR™ film.

increase in etoposide IC50 in response to DZNep [1]: 2 fold
decrease in etoposide IC50 in response to DZNep [2]: 2 fold
SMILES: Nc1nccc2c1ncn2[C@@H]1C=C(CO)[C@@H](O)[C@H]1O [DZNep, 3-Deazaneplanocin A]
BRG1 transcript [3]: reproducibly increased
EZH2 protein abundance and H3K27me3 catalytic mark [4]: effectively reduced
